Results: patent US8205612B2, “Dry powder aerosol generator” (The University of North Carolina at Chapel Hill, NC, priority 2007, dated 2012)

Conditions: in vivo, iv, 20 mg/kg
Protocol: Where F is the absolute bioavailability, AUCLUNG and DLUNG are the area under the curve and dose, respectively, for drug administration through the lung. AUCIV and DIV are areas under the curve and dose, respectively, of drug administered intravenously. From internal PK Studies performed, it is known that F equals 0.54 for capreomycin particles administered through the lungs, AUCIV equals 48.47 μgh/ml, and DIV equals 20 mg/kg.

- AUCIV: 48.47 μgh/ml
Substance: capreomycin
